From paper PMC7041945, “Misfolded proteins bind and activate death receptor 5 to trigger apoptosis during unresolved endoplasmic reticulum stress” (eLife, 2020)

Test system: CHOP, BiP, and DR5 mRNA in HCT116 cells
Assay: qPCR of UPR target transcripts (CHOP, BiP, DR5)
Type: cell-based, Homo sapiens
Conditions: for 2^-(deltaCq) CHOP / 2^-(deltaCq) DR5 total / Cq CHOP / Cq DR5 total / Cq(sample) - avg Cq(GAPDH), CHOP / Cq(sample) - avg Cq(GAPDH), DR5 total / avg. fold induction CHOP / avg. fold induction DR5 total / fold induction CHOP / fold induction DR5 total: Rep 2; for avg. fold induction CHOP / avg. fold induction DR5 total / fold induction CHOP / fold induction DR5 total: vs 24 hr cytoGFP (empty traffo)
Description: Cells were grown in 6-well plates and harvested with 0.5 ml of TRIzol reagent (Life Technologies) per manufacturer’s protocol to extract RNA. For cDNA synthesis, 500 ng of total RNA was reverse transcribed with 2 μl of the SuperScript VILO master mix (Life Technologies # 11755050) in a total reaction volume of 10 μl following the manufacturer’s protocol for reaction temperature and duration. The reverse transcription product was diluted to 200 μl with 10 mM Tris-HCl pH 8.2 and used at 1:100 dilution for subsequent RT-PCR reactions.
PCR samples were prepared as described by manufacturer’s protocols from iQ SYBR Green Supermix (BioRad #17088800).
For each experiment, qRT-PCR reactions were set up in triplicate and run using a CFX96 Real Time System (Bio-Rad). Quantitation cycles were determined with CFX Manager 3.0 software (Bio-Rad) and then normalized to GAPDH as an internal control.

[1] = 1000 ng plasmid, sheet Rep 1, mean of 3 replicates

Substance: RHO-GFP: GFP-tagged rhodopsin expressed from plasmid
- 2^-(deltaCq) for GFP norm to GAPDH, avg (1000 ng plasmid, sheet Rep 1, mean): 55.6234
- BiP avg fold induction relative to empty traffo [1]: 1.525
- CHOP avg fold induction relative to empty traffo [1]: 2.086
- DR5 total avg fold induction relative to empty traffo [1]: 1.336
- GAPDH avg fold induction relative to empty traffo [1]: 1.003
- 2^-(deltaCq) CHOP (3 hr, replicate 1): 0.04356
- 2^-(deltaCq) DR5 total (3 hr, replicate 1): 0.02287
- Cq CHOP (3 hr, replicate 1): 24.2586
- Cq DR5 total (3 hr, replicate 1): 25.1882
- Cq(sample) - avg Cq(GAPDH), CHOP (3 hr, replicate 1): 4.521
- Cq(sample) - avg Cq(GAPDH), DR5 total (3 hr, replicate 1): 5.45
- 2^-(deltaCq) CHOP (3 hr, replicate 2): 0.03694
- 2^-(deltaCq) DR5 total (3 hr, replicate 2): 0.02336
- Cq CHOP (3 hr, replicate 2): 24.4965
- Cq DR5 total (3 hr, replicate 2): 25.1574
- Cq(sample) - avg Cq(GAPDH), CHOP (3 hr, replicate 2): 4.759
- Cq(sample) - avg Cq(GAPDH), DR5 total (3 hr, replicate 2): 5.42
- 2^-(deltaCq) CHOP (3 hr, replicate 3): 0.03617
- 2^-(deltaCq) DR5 total (3 hr, replicate 3): 0.01987
- Cq CHOP (3 hr, replicate 3): 24.5271
- Cq DR5 total (3 hr, replicate 3): 25.391
- Cq(sample) - avg Cq(GAPDH), CHOP (3 hr, replicate 3): 4.789
- Cq(sample) - avg Cq(GAPDH), DR5 total (3 hr, replicate 3): 5.653
- avg. fold induction CHOP (3 hr, mean of 3 replicates): 1.784
- avg. fold induction DR5 total (3 hr, mean of 3 replicates): 0.7693
- fold induction CHOP (3 hr, replicate 1): 1.9981
- fold induction DR5 total (3 hr, replicate 1): 0.7985
- fold induction CHOP (3 hr, replicate 2): 1.694
- fold induction DR5 total (3 hr, replicate 2): 0.8157
- fold induction CHOP (3 hr, replicate 3): 1.659
- fold induction DR5 total (3 hr, replicate 3): 0.6938
- 2^-(deltaCq) CHOP (7 hr, replicate 1): 0.1012
- 2^-(deltaCq) DR5 total (7 hr, replicate 1): 0.0421
- Cq CHOP (7 hr, replicate 1): 22.9621
- Cq DR5 total (7 hr, replicate 1): 24.2279
- Cq(sample) - avg Cq(GAPDH), CHOP (7 hr, replicate 1): 3.304
- Cq(sample) - avg Cq(GAPDH), DR5 total (7 hr, replicate 1): 4.57
- 2^-(deltaCq) CHOP (7 hr, replicate 2): 0.09032
- 2^-(deltaCq) DR5 total (7 hr, replicate 2): 0.04029
- Cq CHOP (7 hr, replicate 2): 23.1268
- Cq DR5 total (7 hr, replicate 2): 24.2914
- Cq(sample) - avg Cq(GAPDH), CHOP (7 hr, replicate 2): 3.4688
- Cq(sample) - avg Cq(GAPDH), DR5 total (7 hr, replicate 2): 4.633
- 2^-(deltaCq) CHOP (7 hr, replicate 3): 0.09401
- 2^-(deltaCq) DR5 total (7 hr, replicate 3): 0.03735
- Cq CHOP (7 hr, replicate 3): 23.069
- Cq DR5 total (7 hr, replicate 3): 24.4008
- Cq(sample) - avg Cq(GAPDH), CHOP (7 hr, replicate 3): 3.411
- Cq(sample) - avg Cq(GAPDH), DR5 total (7 hr, replicate 3): 4.743
- avg. fold induction CHOP (7 hr, mean of 3 replicates): 4.366
- avg. fold induction DR5 total (7 hr, mean of 3 replicates): 1.393
- fold induction CHOP (7 hr, replicate 1): 4.643
- fold induction DR5 total (7 hr, replicate 1): 1.47
- fold induction CHOP (7 hr, replicate 2): 4.143
- fold induction DR5 total (7 hr, replicate 2): 1.407
- fold induction CHOP (7 hr, replicate 3): 4.312
- fold induction DR5 total (7 hr, replicate 3): 1.304
- 2^-(deltaCq) CHOP (24 hr, replicate 1): 0.04125
- 2^-(deltaCq) DR5 total (24 hr, replicate 1): 0.04254
- Cq CHOP (24 hr, replicate 1): 23.6176
- Cq DR5 total (24 hr, replicate 1): 23.5731
- Cq(sample) - avg Cq(GAPDH), CHOP (24 hr, replicate 1): 4.6
- Cq(sample) - avg Cq(GAPDH), DR5 total (24 hr, replicate 1): 4.555
- 2^-(deltaCq) CHOP (24 hr, replicate 2): 0.03991
- 2^-(deltaCq) DR5 total (24 hr, replicate 2): 0.04129
- Cq CHOP (24 hr, replicate 2): 23.6651
- Cq DR5 total (24 hr, replicate 2): 23.6162
- Cq(sample) - avg Cq(GAPDH), CHOP (24 hr, replicate 2): 4.647
- Cq(sample) - avg Cq(GAPDH), DR5 total (24 hr, replicate 2): 4.598
- 2^-(deltaCq) CHOP (24 hr, replicate 3): 0.039
- 2^-(deltaCq) DR5 total (24 hr, replicate 3): 0.03658
- Cq CHOP (24 hr, replicate 3): 23.6985
- Cq DR5 total (24 hr, replicate 3): 23.7909
- Cq(sample) - avg Cq(GAPDH), CHOP (24 hr, replicate 3): 4.681
- Cq(sample) - avg Cq(GAPDH), DR5 total (24 hr, replicate 3): 4.773
- avg. fold induction CHOP (24 hr, mean of 3 replicates): 1.837
- avg. fold induction DR5 total (24 hr, mean of 3 replicates): 1.401
- fold induction CHOP (24 hr, replicate 1): 1.892
